Test results reported in ChEMBL document CHEMBL4673292, “Design, synthesis and anticancer activity of 2-amidomethoxy-1,4-naphthoquinones and its conjugates with Biotin/polyamine” (Bioorg Med Chem Lett, 2021).

Experiments:
K562 = assay: Antiproliferative activity against human K562 cells; format: functional, cell-based
COLO 205 = assay: Antiproliferative activity against human COLO205 cells; format: functional, cell-based
T47D = assay: Antiproliferative activity against human T47D cells; format: functional, cell-based
[1] = Selectivity index, ratio of IC50 for human CCD-18Co cells to IC50 for human T47D cells
[2] = Selectivity index, ratio of IC50 for human CCD-18Co cells to IC50 for human K562 cells
[3] = Selectivity index, ratio of IC50 for human CCD-18Co cells to IC50 for human COLO 205 cells
CCD-18Co = assay: Cytotoxicity against human CCD-18Co cells; format: cell-based

Structure (SMILES)	IC50 (K562) [nM]	IC50 (COLO 205) [nM]	IC50 (T47D) [nM]	Ratio IC50 [1]	Ratio IC50 [2]	Ratio IC50 [3]	IC50 (CCD-18Co) [nM]
COC(=O)CCCCCNC(=O)COC1=CC(=O)c2c(O)cccc2C1=O	4900	4400	3600				
NCCNC(=O)COC1=CC(=O)c2c(O)cccc2C1=O	4100	4700	2800				
NCCCCCCNC(=O)COC1=CC(=O)c2ccccc2C1=O	> 10000	> 10000	6500				
CC(C)(C)OC(=O)NCC(CCCCNC(=O)COC1=CC(=O)c2c(O)cccc2C1=O)CNC(=O)CCCCC1SCC2NC(=O)NC21 (racemic)	> 10000		7900				
O=C(CCCCC1SCC2NC(=O)NC21)NCCCCCCNC(=O)COC1=CC(=O)c2ccccc2C1=O (centres undefined)	> 10000	> 10000	1800				
CCCCCCCNC(=O)COC1=CC(=O)c2c(O)cccc2C1=O	5700	> 10000	4600				
NCC(CN)CCCCNC(=O)COC1=CC(=O)c2c(O)cccc2C1=O	5100	5300	6100				
NCCCCC(CN)CNC(=O)COC1=CC(=O)c2c(O)cccc2C1=O (centres undefined)	> 10000	7300	9600				
CC(C)(C)OC(=O)NCCCCCCNC(=O)COC1=CC(=O)c2ccccc2C1=O	6700	> 10000	> 10000				
O=C(CCCCC1SCC2NC(=O)NC21)NCCNC(=O)COC1=CC(=O)c2c(O)cccc2C1=O (centres undefined)		> 10000	> 10000				
O=C(COC1=CC(=O)c2c(O)cccc2C1=O)NCCCCCCO	3300	2800	3300				

Stronger by IC50 (T47D), values ahead:

IC50 (K562) [nM]	IC50 (COLO 205) [nM]	IC50 (T47D) [nM]	Structure (SMILES)	Ratio IC50 [1]	Ratio IC50 [2]	Ratio IC50 [3]	IC50 (CCD-18Co) [nM]
1100	1400	500	O=C(CCCCC1SCC2NC(=O)NC21)NCCCCCCNC(=O)COC1=CC(=O)c2c(O)cccc2C1=O (centres undefined)	>10	>10	>10	9200
1100	1600	1100	CC(C)(C)OC(=O)NCC(CCCCNC(=O)COC1=CC(=O)c2c(O)cccc2C1=O)NC(=O)OC(C)(C)C (centres undefined)				
1200	2300	800	CC(C)(C)OC(=O)N1CCN(C(=O)COC2=CC(=O)c3c(O)cccc3C2=O)CC1				
1100	1400	100	CC(C)(C)OC(=O)NCCNC(=O)COC1=CC(=O)c2c(O)cccc2C1=O				
1300	3100	1400	CC(C)(C)OC(=O)NCCCCC(CNC(=O)COC1=CC(=O)c2c(O)cccc2C1=O)NC(=O)OC(C)(C)C (centres undefined)				
500	800	600	O=C(O)C(F)(F)F.O=C1C(OCC(=O)N2CCNCC2)=CC(=O)c2c(O)cccc21	>10	>10	>10	8900
1700	1200	1700	NCCCC(=O)NCCCCNC(=O)COC1=CC(=O)c2c(O)cccc2C1=O.O=C(O)C(F)(F)F.O=C(O)C(F)(F)F	>10	>10	>10	8300
2300	2400	1200	CC(=O)NCCCCCCNC(=O)COC1=CC(=O)c2c(O)cccc2C1=O				
1500	2300	1200	O=C1NC2CSC(CCCCC(=O)N3CCN(C(=O)COC4=CC(=O)c5ccccc5C4=O)CC3)C2N1 (centres undefined)				
1000	1300	300	CC(C)(C)OC(=O)NCCCCCCNC(=O)COC1=CC(=O)c2c(O)cccc2C1=O	>10	>10	>10	7300
800	800	600	NCCCCCCNC(=O)COC1=CC(=O)c2c(O)cccc2C1=O.O=C(O)C(F)(F)F	>10	>10	>10	8600
